Patent US20100267796A1, “THERAPEUTIC AGENT FOR IRRITABLE BOWEL SYNDROME” (KYOWA HAKKO KOGYO CO., LTD., priority 2006, published 2010)

Test system: loperamide-induced constipation
Test: Activity on loperamide-induced constipation
Format: in vivo, male SD rats
Settings: doses of 0.01, 0.1 and 1 mg/kg p.o. 1 hour before loperamide 5 mg/kg; rats, n=15; vs. control group
Method: The therapeutic effect of the compounds of the present application on constipation was evaluated by the method described below. Compound 1-1 was used as a test compound.
To Compound 1-1, 0.5 w/v % methyl cellulose 400 (MC, manufactured by Wako Pure Chemical Industries, Ltd.) was added, followed by lightly mixing with a mixer (TTM-1, Shibata Scientific Technology Ltd.). Then, the resultant mixture was subjected to ultrasonic treatment (1 minute) with an ultrasonic cleaner (Sine Sonic UA100, Hitachi Kokusai Denki Engineering Co., Ltd.), and suspended by re-mixing with the mixer to prepare a suspension at a concentration of 0.2 mg/mL. […]
A day before the test, the rat tails were numbered for identification and the body weights were measured. […] The collected stools were dried (100° C., 6 hours) with a dryer (SH42, Yamato Scientific Co., Ltd.), and the weight was measured with an electronic balance (AB54, Mettler-Toledo AG). […]
With respect to the fecal amount, a dry weight was used, and an amount of stools for 0 to 8 hours was used as a measurement parameter. The fecal pellets were collected in a tare (aluminum foil) whose weight was previously measured, and the weight was calculated by subtracting the weight of the tare from the weight including the tare weight. […]

C[C@](O)(C(=O)Nc1cccc2c1C(=O)c1sccc1CS2(=O)=O)C(F)(F)F [Compound 1-1]
fecal amount (dry weight) 0 to 8 hours after the administration of loperamide: significantly inhibits a decrease in fecal amount
